Laboratory results from patent publication US20190071416A1, “COMPOUNDS FOR TREATMENT OF CANCER AND EPIGENETICS” (Agency For Science, Technology and Research, priority 2015, published 2019).

Experiments:
[1] = tested on: Hep G2 cells; experiment: Soft agar colony formation assay; type: cell-based, human
Procedure: Hep G2 cells were purchased from ATCC. Hep G2 cells were maintained in Eagle's Minimum Essential Medium (Sigma, Cat No: #M0643) supplemented with 10% Fetal Bovine Serum (Hyclone, Cat No: SV30087.03), 2 mM L-glutamine, 100 units/mL penicillin and 100 μg/mL streptomycin (Life Technologies, Cat No: 10378-016). The soft agar assays were performed in concordance to the ETC approved method report for soft agar assay (ETC document number: RD0019). Briefly, 600 μL of 0.6% agar was added to 24-well plate (Corning, Cat No: 3738) to form the base layer. This is followed by the addition of 500 μL of 0.36% agar middle layer (containing 10′000Hep G2 cells). Lastly, 500 μL of fresh growth medium (containing the corresponding serially diluted compound) was added above the middle layer. The plates were incubated at 37° C. with 5% carbon dioxide in a humidified incubator for 1 to 2 weeks. 70 μL of thiazolyl blue tetrazolium bromide (5 mg/mL, Sigma Cat No: M5655) was added to each well and the plates were incubated at 37° C. for 2 h. Colonies were counted with GelCount® instrument (Oxford Optronix). The colony counts were plotted against compound concentrations using the Graphpad Prism software. In addition, the software was used to perform non-linear curve fitting and the calculation of IC50.

[2] = tested on: HCT-116; experiment: Cell proliferation assay (CellTiter-Glo), HCT-116; type: cell-based; settings: Homo sapiens, HCT-116, 72 h; 3 days
Procedure: (§1) The cell proliferation assays were tested in several cell lines, including HepG2,HCT116, A549, HPAF-II, CFPAC-1,HuH7, SNU398,Hep3B, and HEK293. All cell lines are from ATCC. HepG2, HPAF-II and HEK293 are cultured in Eagle's MEM media supplemented with fetal bovine serum. HCT116 is cultured in McCoy media supplemented with fetal bovine serum. Huh-7 is cultured in DMEM low glucose (1000 mg/L glucose) with 10% FBS, 1% L-Glutamate and 1% Penicillin/Streptomycin. SNU398 is cultured in RPMI with 10% FBS with 1% L-Glutamate and 1% Penicillin/Streptomycin. Hep3B is cultured in Eagle's MEM with 10% FBS, 1% L-Glutamate and 1% Penicillin/Streptomycin. A549 is cultured in RPMI media supplemented with fetal bovine serum while CFPAC-1 is cultured in IMDM media supplemented with fetal bovine serum. All media and serum are purchased from Gibco (Lifetech). All cells were grown in a temperature controlled incubator at 37° C. and 5% CO2.
(§2) Cell proliferation assay was performed using CellTiter-Glo Luminescent Cell Viability Assay (Promega) following manufacturer's instructions. The cell-line of interest was treated with compounds that were serial diluted in its respective media. Plates were incubated for 3 days at 37° C. in 5% CO2. After 3 days, an equal volume of Cell Titer Glo reagent was added. Plates were rocked on a rotator for 2 h. 100 μL of each well were transferred to a 96-well opaque plate, and luminescence emitted was measured with the Tecan Safire II.

[3] = tested on: A549; experiment: Cell proliferation assay (CellTiter-Glo), A549; type: cell-based; settings: Homo sapiens, A549, 72 h; 3 days
Procedure: as §1, §2

IC50 ([1]; Homo sapiens, HepG2, Hep G2, soft agar): 0.23 µM
GI50 [2]: 17.9 µM
GI50 [3]: 28.8 µM
SMILES: CCCOC(=O)N1CCN(C(=O)c2ccc3c(Cl)cc(-c4ccccc4)nc3c2)C[C@H]1C [B019, Propyl (R)-4-(4-chloro-2-phenylquinoline-7-carbonyl)-2-methylpiperazine-1-carboxylate]
maximum inhibition ([1]; Hep G2, soft agar): 97.2%
inhibition at 10 µM ([1]; Homo sapiens, HepG2, highest concentration tested (10 μM)): ~100%
